How the values were obtained:
[1] = test system: Sprague Dawley rats; format: in vivo; settings: for Mortality in males: single oral dose (metformin salts 1500 mg/kg, Glycine 871.6 mg/kg), male Sprague Dawley rats; for Glucose reducing effect: single oral dose, Glycine 871.6 mg/Kg, metformin glycinate 1500 mg/kg; for Time of lowest level of glucose in blood after administration: both sexes; for Time of lowest level of glucose in blood after administration / Blood glucose level compared to females from the control group: single oral administration; for Mortality in females: single oral dose 1500 mg/kg, female Sprague Dawley rats
Method: . The following 14 days to administration, toxic effects were evaluated. […]; The cause to deaths was to a pronounced and fast drop in glycemia levels.

[2] = test system: Hepatic origin cells: CCL13; settings: 250 mg/ml to 0.12 mg/ml, 24 and 72 hours exposure
[3] = test system: Kidney origin cells: CRL 1633; settings: 250 mg/ml to 0.12 mg/ml, 24 and 72 hours exposure
[4] = test system: Primary cultures: hepatocytes; settings: 250 mg/ml to 0.12 mg/ml, 24 and 72 hours exposure
[5] = test system: Wistar rats; settings: both, rat, in vivo, 28 days
Description: (§1) Number of animals: 50 Wistar rats, young adults 3 months of age, of both sexes, were used. Five batches with ten animals each. Four experimental groups (10 animals in each group) and a control group.
(§2) After fasting, different doses (low, medium, high, and satellite and control groups) of the product were orally administered using an orogastric tube.
(§3) • Low: 0.1 g/kg • Medium: 0.5 g/kg • High: 1.0 g/kg • Satellite 1.0 g/kg • Control: Only the carrier (Bidistilled water)

[6] = test system: Wistar rats; experiment: Subacute toxicity study at 28 days (OECD Guideline 407); settings: 0.1, 0.5, 1.0 g/kg oral
Description: as §1, §2, §3

Structure (SMILES): NCC(=O)O [Glycine, reference compound]
- Mortality in males [1]: did not show mortality
- Glucose reducing effect [1]: did not show a marked glucose reducing affect

Structure (SMILES): CN(C)C(=N)NC(=N)N [Metformin glycinate, N,N-dimethylimidodicarbonimidic diamide glycinate]
- Time of lowest level of glucose in blood after administration [1]: three
- Lactate level in plasma ([1]; day of oral administration, 1500 mg/kg): increase of lactate level in plasma
- Blood glucose level compared to females from the control group [1]: statistically significant lower blood glucose level 15 min, 30 min and also 3 and 6 hours after
- Mortality in females [1]: 30%
- Mortality in males [1]: did not show mortality
- Glucose reducing effect [1]: more pronounced reduction of glucose levels
- Cytotoxicity [2]: not cytotoxic
- Cytotoxicity [3]: not cytotoxic
- Cytotoxicity [4]: not cytotoxic
- Reversal of semi-pasty faeces during the course of the study [5]: 9th-11th
- Probable dose for the non-observable adverse effect (extrapolation) ([5]; po): 500 to 1000 mg/kg
- Mortality during the 28-day study [6]: No mortality

Structure (SMILES): CN(C)C(=N)NC(=N)N.Cl [Metformin hydrochloride, reference compound]
- Time of lowest level of glucose in blood after administration [1]: three
- Blood glucose level compared to females from the control group [1]: statistically lower blood glucose level 3 and 6 hours after
- Mortality in females [1]: 10%
- Mortality in males [1]: did not show mortality

Reference: US8703183B2 (priority 2008, dated 2014)
